Data taken from publication PMC8151276, “An Integrated Approach toward NanoBRET Tracers for Analysis of GPCR Ligand Engagement” (Molecules, 2021).

Tests used:
Format in all cases: binding
SSTR4 = molecular target: T1, SSTR4 (Homo sapiens, UniProt P31391); test: NanoBRET screen HiBiT-SSTR4 in HEK293
T1 construct: purchased Promega (in-house HiBiT-GPCR construct library, NanoBRET)
Experimental: (§1) Each tracer candidate was screened across the entire library of HiBiT-GPCR constructs using NanoBRET as the detection modality. As depicted in Figure 4A, the specificity of interactions was evaluated through decrease in BRET due to competitive displacement of a bound tracer by excess parental compound. Each tracer was analyzed for binding to each HiBiT-GPCR fusion in the absence and in the presence of competing parental compound. Briefly, HEK293 cells were transfected with HiBiT-GPCR constructs diluted into promoterless DNA to reduce expression and maximize translocation to the cell surface. Each tracer candidate was then screened at concentrations of 1 μM and 0.1 μM across cells expressing these fusions. Cells were treated for 1.5 h with tracer either alone or in the presence of 20 μM competing parental compound (i.e., control). BRET was measured upon addition of purified LgBiT and subsequent complementation with HiBiT genetically fused to a GPCR. The specificity of interactions was assessed through a decrease in BRET signal due to competitive displacement of the bound tracer. To further gauge the robustness of these interactions, the fold response over the control (i.e., BRETtracer/BRETcontrol) was calculated. We chose a 1.5-fold response, which translates to ≥7-fold signal over noise as the minimal threshold required to score an interaction as positive. […]. Below we highlight the screening results obtained for our exemplary fluorescent tracers based on Clozapine, Amitriptyline and AZD1283.
(§2) HiBiT-GPCR DNA constructs were diluted in 10 mM Tris pH 8 to a final concentration of 0.01 μg/μL, arrayed in 96-well plates and stored at −20 °C. For transfection, HEK293 cells were suspended in Opti-MEM (without phenol red) supplemented with 2% fetal bovine serum (Seradigm) and 100 units/mL penicillin–streptomycin (Gibco) at a final concentration of 220,000 cells/mL and dispensed into white 96-well plates at 90 μL/well. Subsequent transfections and screens were carried using an Agilent Bravo Automated Liquid Handling Platform. First, the 96-well HiBiT DNA arrays were diluted 25-fold in Opti-MEM (without serum or phenol red) to a final concentration of 0.0004 μg/μL and 20 μL of the diluted DNAs were transferred into new 96-well plates. Next, promoterless carrier DNA (1 μg/μL) was diluted 25-fold (0.04 μg/μL) and then dispensed into the diluted arrays at 20 μL/well. Following brief mixing, Viafect transfection reagent (Promega) diluted 16-fold into Opti-MEM was dispensed into the plates at 40 μL/well. After mixing by pipetting, plates were incubated for 10 min on the pipetting station deck. The DNA-transfection reagent complexes were then added to plates containing cells. To facilitate the screen, 10 μL of DNA-transfection reagent complexes were added in duplicates to the top 4 and bottom 4 rows, resulting in two identical 48-well arrays per plate. Plates with transfected cells were incubated for 18–20 h at 37 °C/5% CO2. A screen of each tracer across the entire library using two different concentrations requires duplicate plates of transfected cells. Depending on the number of tracers being screened, transfections can be scaled up using the same ratios. The next day, for each tracer, four 20× screening solutions in tracer dilution buffer (Promega) were prepared: two duplicates at final concentration of 20 μM and two duplicates at a final concentration of 2 μM. A competing unmodified compound was added to one of each duplicate at a final concentration of 400 μM. The four resulting solutions were diluted 4-fold in Opti-MEM without serum or phenol red to generate 5× solutions (5 µM and 0.5 µM tracer +/− 100 μM competing compound). To screen the library, a BioTek MultiFlo FX liquid dispenser was used to dispense 22.5 µL of tracer solution to the top 4 rows and 22.5 µL tracer + competing compound solution to the 4 bottom rows. Plates were briefly mixed on an orbital shaker and incubated for 1.5 h at room temperature. […]

FZD5 = molecular target: T2, FZD5 (Homo sapiens, UniProt Q13467); test: NanoBRET screen HiBiT-FZD5 in HEK293
T2 construct: purchased Promega (in-house HiBiT-GPCR construct library, NanoBRET)
T2 sequence (Q13467 27-585): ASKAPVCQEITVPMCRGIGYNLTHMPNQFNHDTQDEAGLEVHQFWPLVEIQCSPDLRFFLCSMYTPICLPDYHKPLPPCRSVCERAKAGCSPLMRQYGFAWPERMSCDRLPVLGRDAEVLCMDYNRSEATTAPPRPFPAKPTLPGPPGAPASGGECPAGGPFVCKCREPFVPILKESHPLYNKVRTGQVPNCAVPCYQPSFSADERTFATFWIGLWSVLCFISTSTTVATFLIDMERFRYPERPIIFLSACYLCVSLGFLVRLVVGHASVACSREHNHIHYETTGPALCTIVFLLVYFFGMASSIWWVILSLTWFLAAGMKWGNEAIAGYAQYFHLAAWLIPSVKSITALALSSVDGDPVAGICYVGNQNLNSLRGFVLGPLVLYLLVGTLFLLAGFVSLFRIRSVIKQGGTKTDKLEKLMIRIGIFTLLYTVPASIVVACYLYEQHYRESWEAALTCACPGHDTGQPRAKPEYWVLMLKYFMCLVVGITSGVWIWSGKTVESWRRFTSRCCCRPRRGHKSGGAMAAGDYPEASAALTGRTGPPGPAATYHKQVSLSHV
Experimental: as §1, §2

FPR3 = molecular target: T3, FPR3 (Homo sapiens, UniProt P25089); test: NanoBRET screen HiBiT-FPR3 in HEK293
T3 construct: purchased Promega (in-house HiBiT-GPCR construct library, NanoBRET)
T3 sequence (P25089 1-353): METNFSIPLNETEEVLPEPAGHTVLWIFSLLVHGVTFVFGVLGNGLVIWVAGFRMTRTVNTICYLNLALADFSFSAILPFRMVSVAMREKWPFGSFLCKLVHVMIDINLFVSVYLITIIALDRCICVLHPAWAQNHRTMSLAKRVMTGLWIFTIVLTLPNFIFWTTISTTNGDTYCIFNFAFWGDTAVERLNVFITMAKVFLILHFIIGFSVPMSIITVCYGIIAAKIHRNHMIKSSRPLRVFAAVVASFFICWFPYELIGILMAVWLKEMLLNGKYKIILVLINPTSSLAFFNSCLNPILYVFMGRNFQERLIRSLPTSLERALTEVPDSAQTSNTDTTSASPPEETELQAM
Experimental: as §1, §2

GABBR2 = molecular target: T4, GABBR2 (Homo sapiens, UniProt O75899); test: NanoBRET screen HiBiT-GABBR2 in HEK293
T4 construct: purchased Promega (in-house HiBiT-GPCR construct library, NanoBRET)
T4 sequence (O75899 42-941): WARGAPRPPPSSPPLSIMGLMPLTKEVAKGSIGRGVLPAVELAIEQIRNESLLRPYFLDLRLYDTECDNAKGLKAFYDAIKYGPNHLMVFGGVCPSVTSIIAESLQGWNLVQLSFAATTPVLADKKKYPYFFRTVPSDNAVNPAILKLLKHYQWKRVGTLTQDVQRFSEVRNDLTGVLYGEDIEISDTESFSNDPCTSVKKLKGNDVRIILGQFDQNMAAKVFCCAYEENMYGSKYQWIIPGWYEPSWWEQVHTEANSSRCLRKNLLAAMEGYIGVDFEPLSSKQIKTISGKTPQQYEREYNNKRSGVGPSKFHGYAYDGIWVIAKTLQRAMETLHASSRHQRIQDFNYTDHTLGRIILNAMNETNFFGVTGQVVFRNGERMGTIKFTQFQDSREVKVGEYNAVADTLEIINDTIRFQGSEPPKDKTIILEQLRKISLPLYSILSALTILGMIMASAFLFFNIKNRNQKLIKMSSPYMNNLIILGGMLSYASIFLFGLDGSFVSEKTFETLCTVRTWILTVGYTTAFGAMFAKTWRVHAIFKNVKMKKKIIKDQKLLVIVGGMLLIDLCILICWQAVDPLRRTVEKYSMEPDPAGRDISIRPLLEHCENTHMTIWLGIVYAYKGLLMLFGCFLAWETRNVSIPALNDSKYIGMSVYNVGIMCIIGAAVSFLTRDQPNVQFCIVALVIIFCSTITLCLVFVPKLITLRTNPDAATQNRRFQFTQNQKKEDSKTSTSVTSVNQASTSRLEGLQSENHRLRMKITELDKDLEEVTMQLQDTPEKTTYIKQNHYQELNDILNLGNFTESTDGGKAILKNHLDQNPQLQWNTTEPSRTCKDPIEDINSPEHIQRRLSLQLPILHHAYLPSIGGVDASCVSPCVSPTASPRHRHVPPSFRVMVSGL
Experimental: as §1, §2

[1] = tracer at 1μM, listed as amitriptyline-b-2-NB590
[2] = tracer at 0.1μM, listed as amitriptyline-b-2-NB590

T1 sequence (P31391 whole entry): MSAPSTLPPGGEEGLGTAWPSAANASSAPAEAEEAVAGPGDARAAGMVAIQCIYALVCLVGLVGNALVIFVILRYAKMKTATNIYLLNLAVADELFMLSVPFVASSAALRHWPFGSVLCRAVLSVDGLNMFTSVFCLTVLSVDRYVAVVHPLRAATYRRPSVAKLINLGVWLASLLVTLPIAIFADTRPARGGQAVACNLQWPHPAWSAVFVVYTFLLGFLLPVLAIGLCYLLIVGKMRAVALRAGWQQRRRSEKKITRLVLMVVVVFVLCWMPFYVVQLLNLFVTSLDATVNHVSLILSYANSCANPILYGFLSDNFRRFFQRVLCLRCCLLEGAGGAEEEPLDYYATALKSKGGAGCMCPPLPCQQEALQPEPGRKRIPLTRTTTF

CCOC(=O)c1cc(C#N)c(N2CCC(C(=O)NS(=O)(=O)Cc3ccccc3/C=C/C(=O)NCCNC(=O)CCc3ccc4n3[B-](F)(F)[N+]3=C(c5ccc[nH]5)C=CC3=C4)CC2)nc1C [AZD1283-1-NB590]
NanoBRET Fold Response (SSTR4; SSTR4, 0.1μM): 1.10 | NanoBRET Fold Response (SSTR4; SSTR4, 1μM): 1.07 | NanoBRET Fold Response (FZD5; FZD5, 0.1μM): 1.07 | NanoBRET Fold Response (FZD5; FZD5, 1μM): 1.05 | NanoBRET Fold Response (FPR3; FPR3, 0.1μM): 1.08 | NanoBRET Fold Response (FPR3; FPR3, 1μM): 1.06 | NanoBRET Fold Response (GABBR2; GABBR2, 0.1μM): 0.89 | NanoBRET Fold Response (GABBR2; GABBR2, 1μM): 1.01

N#CN=C(NCCCOc1cccc(CN2CCCCC2)c1)NCCNC(=O)CCOCCOCCOCCOCCNC(=O)CCc1ccc2n1[B-](F)(F)[N+]1=C(c3ccc[nH]3)C=CC1=C2 [Aminopotentidine-2-NB590]
NanoBRET Fold Response (SSTR4; SSTR4, tracer 0.1μM): 1.08 | NanoBRET Fold Response (SSTR4; SSTR4, tracer 1μM): 1.00 | NanoBRET Fold Response (FZD5; FZD5, tracer 0.1μM): 1.06 | NanoBRET Fold Response (FZD5; FZD5, tracer 1μM): 1.05 | NanoBRET Fold Response (FPR3; FPR3, tracer 0.1μM): 1.21 | NanoBRET Fold Response (FPR3; FPR3, tracer 1μM): 1.13 | NanoBRET Fold Response (GABBR2; GABBR2, tracer 0.1μM): 1.03 | NanoBRET Fold Response (GABBR2; GABBR2, tracer 1μM): 0.94

CN(C)CCC=C1c2ccccc2CCc2ccc(C(=O)NCCNC(=O)CCOCCOCCOCCOCCNC(=O)CCc3ccc4n3[B-](F)(F)[N+]3=C(c5ccc[nH]5)C=CC3=C4)cc21 [Amitriptyline-a-2-NB590]
NanoBRET Fold Response (SSTR4; tracer at 0.1μM): 1.09 | NanoBRET Fold Response (SSTR4; tracer at 1μM): 1.09 | NanoBRET Fold Response (FZD5; tracer at 0.1μM): 1.01 | NanoBRET Fold Response (FZD5; tracer at 1μM): 0.97 | NanoBRET Fold Response (FPR3; tracer at 0.1μM): 0.96 | NanoBRET Fold Response (FPR3; tracer at 1μM): 1.07 | NanoBRET Fold Response (GABBR2; tracer at 0.1μM): 1.08 | NanoBRET Fold Response (GABBR2; tracer at 1μM): 0.95

CN(C)CCC=C1c2ccccc2CCc2ccc(C(=O)NCCNC(=O)CCOCCOCCOCCOCCNC(=O)CCc3ccc4n3[B-](F)(F)[N+]3=C(c5ccc[nH]5)C=CC3=C4)cc21 [Amitriptyline-b-2-NB590]
NanoBRET Fold Response (SSTR4; tracer at 0.1μM): 1.16 | NanoBRET Fold Response (SSTR4; tracer at 1μM): 0.99 | NanoBRET Fold Response (FZD5; tracer at 0.1μM): 0.97 | NanoBRET Fold Response (FZD5; [1]): 0.99 | NanoBRET Fold Response (FPR3; [2]): 1.27 | NanoBRET Fold Response (FPR3; [1]): 1.02 | NanoBRET Fold Response (GABBR2; [2]): 1.13 | NanoBRET Fold Response (GABBR2; [1]): 1.30

CN(CCC=C1c2ccccc2CCc2ccccc21)C(=O)CCOCCOCCOCCOCCNC(=O)CCc1ccc2n1[B-](F)(F)[N+]1=C(c3ccc[nH]3)C=CC1=C2 [Amitriptyline-e-2-NB590]
NanoBRET Fold Response (FZD5; tracer at 1μM): 0.98 | NanoBRET Fold Response (GABBR2; tracer at 1μM): 1.08
